Here are results for two molecules from patent US11608380B2, “Anti-EGFRvIII antibodies and uses thereof” (REGENERON PHARMACEUTICALS, INC., priority 2014, dated 2023).

Experiment [1] has as its system MMT/hEGFRvIII. Description: Cell viability (CCK8) cell kill assay. The experiment is classed as cell-based, human. Here is the method:
(§1) All cells were generated via lipofectamine 2000 based methodologies and were cultured in complete growth media in the presence of G418.
(§2) Next, the ability of anti-human EGFRvIII antibodies conjugated to the maytansine toxin DM1 to reduce cell viability was determined using in vitro cell based assays. Cells were seeded in PDL-coated 96 well plates at 250-2000 cells per well in complete growth media and allowed to grow overnight. For cell viability curves, ADCs or free drug (DM1-SMe) was added to cells at final concentrations ranging from 500 nM to 5 μM and incubated for 3 days. […] Background OD450 levels from digitonin (40 nM) treated cells was subtracted from all wells and viability is expressed as a percentage of the untreated controls. IC50 values were determined from a four-parameter logistic equation over a 10-point response curve (Graph Pad Prism). IC50 values are in nM and are normalized for the particular drug/antibody ratio (DAR).

Experiment [2] deals with U251/hEGFRvIII. Briefly: Cell viability (CCK8) cell kill assay. The experiment is classed as cell-based, human. The conditions noted are these: Table 18B. The protocol: as §1, §2
Experiment [3] deals with HEK293/hEGFRwt. Description: Cell viability (CCK8) cell kill assay. The experiment is classed as cell-based, human. The conditions noted are these: Table 18A. Here is the method: as §1, §2
Experiment [4] concerns HEK293/hEGFRvIII. Description: Cell viability (CCK8) cell kill assay. The experiment is classed as cell-based, human. The protocol: as §1, §2
Experiment [5] has as its system U251. Description: Cell viability (CCK8) cell kill assay. The settings on record: Table 18A. It is filed as cell-based. The protocol: (§3) Next, the ability of anti-human EGFRvIII antibodies conjugated to the maytansine toxin DM1 to reduce cell viability was determined using in vitro cell based assays. Cells were seeded in PDL-coated 96 well plates at 250-2000 cells per well in complete growth media and allowed to grow overnight. For cell viability curves, ADCs or free drug (DM1-SMe) was added to cells at final concentrations ranging from 500 nM to 5 μM and incubated for 3 days. Cells were incubated with CCK8 (Dojindo) for the final 1-3 h and the absorbance at 450 nm (OD450) was determined on the Flexstation3 (Molecular Devices). Background OD450 levels from digitonin (40 nM) treated cells was subtracted from all wells and viability is expressed as a percentage of the untreated controls. IC50 values were determined from a four-parameter logistic equation over a 10-point response curve (Graph Pad Prism). IC50 values are in nM and are normalized for the particular drug/antibody ratio (DAR).

Experiment [6] has as its system MMT. Description: Cell viability (CCK8) cell kill assay. The experiment is classed as cell-based. The protocol:
as §3

For experiment [7], the system named is HEK293. Briefly: Cell viability (CCK8) cell kill assay. The experiment is classed as cell-based. The protocol: as §3
Experiment [8] concerns HEK293 cells. Briefly: FACS cell binding selectivity. The experiment is classed as cell-based. The conditions noted are these: directly labeled (ALEXA FLUOR 488) antibodies, 10 μg/ml. Here is the method:
To determine the specificity of the anti-EGFRvIII mAbs, their binding to HEK293, HEK293 cells expressing EGFRvIII (HEK293/EGFRvIII) and A431 cells, was analyzed by fluorescence activated cell sorting (FACS). HEK293/EGFRvIII cells were prepared by transfecting HEK293 cells with neomycin resistant DNA vectors constitutively expressing full-length hEGFRvIII (SEQ ID NO:147) using LIPOFECTAMINE™ 2000 transfection reagent (INVITROGEN™). At two days post-transfection, cells were placed under G418 selection for approximately two weeks. Populations positively expressing EGFRvIII were isolated via fluorescence activated cell sorting (FACS). The HEK293 cells expressing ˜3×10^6 copies of EGFRvIII per cell were used in the experiment. Briefly, the anti-EGFRvIII antibodies at 10 μg/ml were incubated with cells for 30 minutes at room temperature, washed, incubated with secondary antibody, i.e., phycoerythrin (PE)-labeled goat F(ab′)2 against human IgG (cat #109-116-170, Jackson ImmunoResearch Laboratories), followed by a final wash before FACS analysis. In another set of experiment, anti-EGFRvIII antibodies were directly conjugated via their lysine residues with the fluorescent dye, ALEXA FLUOR® 488 Dye (INVITROGEN™), thereby eliminating the step using the secondary antibody. […] Controls I, II, III, IV and V are described above. MFI: Mean Fluorescence Intensity.

The subject of experiment [9] is Control peptide. Description: Antibody specificity by ELISA. The conditions noted are these: ELISA binding, irrelevant peptide. The protocol: (§4) To further characterize anti-hEGFRvIII mAbs, their binding specificity was examined by ELISA. […] For the junctional peptides that were linked to biotin either at C-terminal (SEQ ID NO:149) or N-terminal (SEQ ID NO:150) via a linker, plates were pre-coated with avidin. Also, coated was an irrelevant peptide (control peptide) with or without biotin at its N-terminal. Anti-EGFRvIII antibodies as well as an isotype control antibody were added to coated plates and allowed to incubate for 1 hour at 25° C. The plates were then washed and bound anti-EGFRvIII mAbs were detected with anti-human Fc antibodies conjugated with horse-radish peroxidase (HRP). Plates were developed with a tetra-methyl-benzidine (TMB) substrate solution to produce a colorimetric reaction and neutralized with sulfuric acid before reading absorbance at 450 nm on a VICTOR™ X5 plate reader. Data analysis used a sigmoidal dose-response model within PRISM™ software. […] NT: Not tested. Controls I-III: As described above.

Experiment [10] relates to N-term Biotin control peptide. Briefly: Antibody specificity by ELISA. The conditions noted are these: ELISA binding, irrelevant peptide with N-terminal biotin. The protocol:
as §4

Experiment [11] addresses C-term biotin J-peptide (Homo sapiens, UniProt P00533, DELINS30-297G). Description: Antibody specificity by ELISA. The conditions noted are these: ELISA binding, avidin pre-coated plates. Here is the method:
(§5) To further characterize anti-hEGFRvIII mAbs, their binding specificity was examined by ELISA. […] For the junctional peptides that were linked to biotin either at C-terminal (SEQ ID NO:149) or N-terminal (SEQ ID NO:150) via a linker, plates were pre-coated with avidin. Also, coated was an irrelevant peptide (control peptide) with or without biotin at its N-terminal. Anti-EGFRvIII antibodies as well as an isotype control antibody were added to coated plates and allowed to incubate for 1 hour at 25° C. The plates were then washed and bound anti-EGFRvIII mAbs were detected with anti-human Fc antibodies conjugated with horse-radish peroxidase (HRP). […] Data analysis used a sigmoidal dose-response model within PRISM™ software.

Experiment [12] addresses EGFRvIII-mmh (Homo sapiens, UniProt P00533, DELINS30-297G). Description: Antibody specificity by ELISA. The settings on record: ELISA binding, plate coated with EGFRvIII-mmh. Here is the method:
as §5

Experiment [13] addresses EGFR-mmh (Homo sapiens, UniProt P00533). Description: Antibody specificity by ELISA. The conditions noted are these: read-out: EC50 EGFR-mmh (25° C.), ELISA binding, plate coated with EGFR-mmh. Here is the method:
as §5

Experiment [14] has as its target junctional peptide (J-peptide) (Homo sapiens, UniProt P00533, DELINS30-297G). Briefly: Antibody specificity by ELISA. The settings on record: ELISA binding. Here is the method: as §5
Experiment [15] deals with N-term biotin J-peptide (Homo sapiens, UniProt P00533, DELINS30-297G). Briefly: Antibody specificity by ELISA. The settings on record: ELISA binding, avidin pre-coated plates. The protocol:
as §5

The target in experiment [16] is EGFR-mFc (Homo sapiens, UniProt P00533). Description: SPR (BIACORE) binding kinetics, receptor-capture format. The settings on record: 37° C., EGFR-mFc captured, NB=no binding. Here is the method:
(§6) Measurements were conducted on a T100 BIACORE™ instrument. […] In the receptor-capture format, either EGFRvIII-mFc or EGFR-mFc, was captured on the BIACORE™ chip and the respective antibodies flowed over. Kinetic association (ka) and dissociation (kd) rate constants were determined by processing and fitting the data to a 1:1 binding model using Scrubber 2.0 curve fitting software. Binding dissociation equilibrium constants (KD) and dissociative half-lives (t1/2) were calculated from the kinetic rate constants as: KD (M)=kd/ka; and t1/2 (min)=ln 2/(60*kd).

The test system of experiment [17] is EGFRvIII-mFc. It is filed as binding, human. Here is the method:
as §6

Where [18] appears, read: Table 20, MMT/hEGFRvIII, single ADC or 1:1 pairwise combination.
The mark [19] stands for this setting: Table 19, HEK293/hEGFRvIII (high).
Where [20] appears, read: Table 20, HEK293/hEGFRvIII, single ADC or 1:1 pairwise combination.
Where [21] appears, read: Table 20, MMT, single ADC or 1:1 pairwise combination.
The mark [22] stands for this setting: Table 20, HEK293, single ADC or 1:1 pairwise combination.
[23] abbreviates: 37° C., receptor-capture, EGFRvIII-mFc captured.

Where only a bound is given, the exact number is not on record here.

Regarding DM1-SMe, the “% Kill” value in experiment [1] (Table 18B, MMT/hEGFRvIII) was 100%; in [1] (Table 19, MMT/hEGFRvIII (high)), 99%; in experiment [1] (setting [18]), 100%; in experiment [2] it was 83%; in experiment [3], 95%; in experiment [4] (Table 18A, HEK293/hEGFRvIII), 99%. The “% Kill” value in experiment [4] (setting [19]) is recorded as 99%; in experiment [4] (setting [20]), 97%; in experiment [5] (U251) it was 81%; in experiment [6] (Table 18B, MMT), 96%; in experiment [6] (Table 19, MMT), 100%; in experiment [6] (setting [21]), 100%. Further, the “% Kill” value in experiment [7] (Table 18A, HEK293) is 97%; in [7] (Table 19, HEK293), 98%; in experiment [7] (setting [22]), 96%. Further, the IC50 in experiment [1] (Table 18B, MMT/hEGFRvIII, 3 days, normalized for DAR) turned out to be 700 pM; in experiment [1] (Table 19, MMT/hEGFRvIII (high)), 180 pM; in [1] (setting [18]), 190 pM; in [2] (3 days, normalized for DAR), 1200 pM; in [3] (3 days, normalized for DAR), 570 pM; in experiment [4] (Table 18A, HEK293/hEGFRvIII, 3 days, normalized for DAR), 600 pM. The IC50 in [4] (setting [19]) was determined as 250 pM; in experiment [4] (setting [20]), 280 pM; in experiment [5] (U251, 3 days, normalized for DAR) it was 1800 pM; in experiment [6] (Table 18B, MMT, 3 days, normalized for DAR) it was 600 pM; in [6] (Table 19, MMT), 150 pM; in experiment [6] (setting [21]), 190 pM. The IC50 in [7] (Table 18A, HEK293, 3 days, normalized for DAR) is 310 pM; in [7] (Table 19, HEK293) it was 190 pM; in experiment [7] (setting [22]) it was 210 pM.

B1: H1H1915N: human IgG1 Fc anti-EGFRvIII antibody with variable domains 1915; HCVR/LCVR SEQ ID NOs 82/90 (antibody, V domains shown)
VH: QVQLVESGGGVVQPGRSLRLSCAASGFTFSAYAMHWVRQAPGKGLEWVAVIWYDGSNKNYADSVKGRFTVSRDNSKNTLYLEMNSLRAEDTAVYYCARDLMVGVTNYWGQGTLVTVST
VL: DVVMTQSPLSLPVALGQPASISCRSSQSLVYTDGNTYLNWFHQRPGQSPRRLIYKVSNRDSGVPDRFTGSGSGTDFTLKISRVEAEDVGVFYCMQGSHWPPYTFGQGTKLEIK
modifications: human IgG1 Fc
In the case of B1, in experiment [8], the “Parental HEK293 MFI” value worked out at 3461. For the same molecule, the EC50 in experiment [9], in experiment [10], in experiment [11], in experiment [13], in experiment [14] and in experiment [15] was over 10000 pM each time. Further, the “EC50 EGFRvIII-mmh (25° C.)” value in experiment [12] is given as “strong binding”. Besides, the ka in experiment [16] came to 43500 M⁻¹ s⁻¹; in experiment [17] (setting [23]), 100000 M⁻¹ s⁻¹. Also, the kd in experiment [16] was 0.00801 s⁻¹; in experiment [17] (setting [23]) it was 0.000328 s⁻¹. Also, the “selectivity for EGFRvIII over wild-type EGFR” value in experiment [17] (receptor capture format (Table 4)) is reported as “greatest selectivity”.
